Tests used:
[1] = Repeated water uptake study with solvent-free SPM (dichloromethane preparation); format: physicochemical
From the text: Study of weight change under controlled humidity conditions, samples were placed in open vials, which were placed in closed controlled-humidity jars. Relative humidities were controlled using saturated aqueous salt solutions: 58% RH, NaBr; 75% RH, (NH4)2 SO4; 76%, sodium acetate; 84% RH, KBr.
A possible cause of the observed weight loss is that some reaction solvent (toluene in this case) from the preparation of SPM remained on the solid and evaporated in the humidity jars. To test this theory, it was decided to prepare SPM, show it to be solvent-free, and repeat the water uptake studies. Dichloromethane was chosen as the organic solvent for the preparation rather than toluene because its lower boiling point should allow it to be removed from the solid more easily and completely. SPM was made by stirring a slurry of SPA and one equivalent of water in dichloromethane for 2 days, then isolation by filtration and air-drying of the solid SPM.
The remainder of the SPM sample was allowed to dry in an open jar under ambient conditions for about 1 week. It was then characterized by XRPD elemental analysis, and Karl Fischer (KF) analysis. The sample appears to be pure SPM containing very little, if any, residual solvent.
Both SPM and SPA increased in weight about 20% when equilibrium was reached (constant weight) at each humidity utilized. The samples were analyzed by XRPD after completion of the water uptake experiments. […] The nature of this form has not been determined.

[2] = Drying of SPM under low pressure, XRPD of resulting solid; format: physicochemical; settings: about 1 torr, ambient temperature, 24 hours
Method: Any residual dichloromethane should evaporate readily from the solid under ambient conditions. To determine if solvent evaporation could be ensured by drying under low-pressure conditions, a portion of the SPM sample was kept under about 1 torr pressure at ambient temperature for 24 hours.

[3] = Solid form interconversion under tableting pressure (XRPD); format: physicochemical; settings: XRPD of crushed tablets
Method: Dissolutions were carried out in a standard Van-Kel dissolution bath. The medium was either water, 90% water/10% ethanol, or 95% water/5% ethanol. For nonintrinsic dissolution experiments, SPM and SPA powders were sieved and fractions that passed through a 75 μm sieve were used. For intrinsic dissolution experiments, tablets were prepared in a standard Woods apparatus by compression of 400 mg of material at 3000 psig for 1 minute.
For intrinsic dissolution experiments, the test material is compressed into a tablet and the tablet (still in the die) is lowered into the dissolution medium. In this way, a consistent surface area, the tablet face, is presented to the medium. […] Therefore, tablets of SPM and SPA were prepared, removed from the die, crushed into powders, and examined by XRPD.

[4] = format: physicochemical
Method: Both SPM and SPA were analyzed by x-ray powder diffraction (XRPD), infrared (IR) spectroscopy, solid-state nuclear magnetic resonance (SSNMR) spectroscopy, differential scanning calorimetry (DSC) and thermogravimetric analysis (TGA). The XRPD patterns of SPM and SPA are quite different and distinguishable. While the IR and SSNMR spectra of SPM and SPA are different, the differences are subtle. SPM and SPA behave quite differently on both DSC and TGA thermal analyses. SPA undergoes endothermic transitions at 364° C. and 409° C. that are accompanied by a weight loss of 72%.

In the case of `O=C1NC(=O)C(c2ccccc2)(c2ccccc2)N1` [SPM, sodium phenytoin monohydrate], the sample weight ([1]; 58% RH, day 0 (starting weight), monohydrate) is reported as 1.5057 g, the “change in starting weight” value ([1]; 58% RH, day 1, monohydrate) is reported as “+0.0186 g” and the sample weight ([1]; 58% RH, day 1, monohydrate) is reported as 1.5243 g. For the same molecule, the “change in starting weight” value ([1]; 58% RH, day 2, monohydrate) was “+0.0269 g”, the sample weight ([1]; 58% RH, day 2, monohydrate) was 1.5326 g and the “change in starting weight” value ([1]; 58% RH, day 3, monohydrate) was “+0.0384 g”. For the same molecule, the sample weight ([1]; 58% RH, day 3, monohydrate) was 1.5441 g, the “change in starting weight” value ([1]; 58% RH, day 4, monohydrate) was “+0.0510 g” and the sample weight ([1]; 58% RH, day 4, monohydrate) was 1.5567 g. For the same molecule, the “change in starting weight” value ([1]; 58% RH, day 5, monohydrate) was “+0.0620 g”, the sample weight ([1]; 58% RH, day 5, monohydrate) was 1.5677 g and the “change in starting weight” value ([1]; 58% RH, day 6, monohydrate) was “+0.0717 g”. The sample weight ([1]; 58% RH, day 6, monohydrate) was 1.5774 g, the “change in starting weight” value ([1]; 58% RH, day 7, monohydrate) was “+0.0816 g” and the sample weight ([1]; 58% RH, day 7, monohydrate) was 1.5873 g. The “change in starting weight” value ([1]; 58% RH, day 8, monohydrate) was “+0.0940 g”, the sample weight ([1]; 58% RH, day 8, monohydrate) was 1.5997 g and the “change in starting weight” value ([1]; 58% RH, day 10, monohydrate) was “+0.1185 g”. The sample weight ([1]; 58% RH, day 10, monohydrate) was 1.6242 g, the “change in starting weight” value ([1]; 58% RH, day 11, monohydrate) was “+0.1340 g” and the sample weight ([1]; 58% RH, day 11, monohydrate) was 1.6397 g. For the same molecule, the “change in starting weight” value ([1]; 58% RH, day 12, monohydrate) was “+0.1486 g”, the sample weight ([1]; 58% RH, day 12, monohydrate) was 1.6543 g and the “change in starting weight” value ([1]; 58% RH, day 13, monohydrate) was “+0.1555 g”. The sample weight ([1]; 58% RH, day 13, monohydrate) was 1.6612 g, the “change in starting weight” value ([1]; 58% RH, day 14, monohydrate) was “+0.1633 g” and the sample weight ([1]; 58% RH, day 14, monohydrate) was 1.6690 g. The “change in starting weight” value ([1]; 58% RH, day 15, monohydrate) was “+0.1719 g”, the sample weight ([1]; 58% RH, day 15, monohydrate) was 1.6776 g and the “change in starting weight” value ([1]; 58% RH, day 16, monohydrate) was “+0.1794 g”. For the same molecule, the sample weight ([1]; 58% RH, day 16, monohydrate) was 1.6851 g, the “change in starting weight” value ([1]; 58% RH, day 17, monohydrate) was “+0.1860 g” and the sample weight ([1]; 58% RH, day 17, monohydrate) was 1.6917 g. For the same molecule, the “change in starting weight” value ([1]; 58% RH, day 21, monohydrate) was “+0.2176 g”, the sample weight ([1]; 58% RH, day 21, monohydrate) was 1.7233 g and the “change in starting weight” value ([1]; 58% RH, day 23, monohydrate) was “+0.2323 g”. For the same molecule, the sample weight ([1]; 58% RH, day 23, monohydrate) was 1.7380 g, the “change in starting weight” value ([1]; 58% RH, day 26, monohydrate) was “+0.2525 g” and the sample weight ([1]; 58% RH, day 26, monohydrate) was 1.7582 g. For the same molecule, the “change in starting weight” value ([1]; 58% RH, day 35) was “+0.2556 g”, the sample weight ([1]; 58% RH, day 35) was 1.7613 g and the “change in starting weight” value ([1]; 58% RH, day 42) was “+0.2511 g”. For the same molecule, the sample weight ([1]; 58% RH, day 42) was 1.7568 g, the “Percent change based on average of final two weights” value (“Percent change based on average” below) ([1]; 58% RH, monohydrate) was “+17%” and the sample weight ([1]; 75% RH, day 0 (starting weight), monohydrate) was 1.5013 g. For the same molecule, the “change in starting weight” value ([1]; 75% RH, day 1, monohydrate) was “+0.0470 g”, the sample weight ([1]; 75% RH, day 1, monohydrate) was 1.5483 g and the “change in starting weight” value ([1]; 75% RH, day 2, monohydrate) was “+0.0930 g”. For the same molecule, the sample weight ([1]; 75% RH, day 2, monohydrate) was 1.5943 g, the “change in starting weight” value ([1]; 75% RH, day 3, monohydrate) was “+0.1386 g” and the sample weight ([1]; 75% RH, day 3, monohydrate) was 1.6399 g. The “change in starting weight” value ([1]; 75% RH, day 4, monohydrate) was “+0.1819 g”, the sample weight ([1]; 75% RH, day 4, monohydrate) was 1.6832 g and the “change in starting weight” value ([1]; 75% RH, day 5, monohydrate) was “+0.2205 g”. For the same molecule, the sample weight ([1]; 75% RH, day 5, monohydrate) was 1.7218 g, the “change in starting weight” value ([1]; 75% RH, day 6, monohydrate) was “+0.2552 g” and the sample weight ([1]; 75% RH, day 6, monohydrate) was 1.7565 g. For the same molecule, the “change in starting weight” value ([1]; 75% RH, day 7, monohydrate) was “+0.2874 g”, the sample weight ([1]; 75% RH, day 7, monohydrate) was 1.7887 g and the “change in starting weight” value ([1]; 75% RH, day 8, monohydrate) was “+0.2752 g”. The sample weight ([1]; 75% RH, day 8, monohydrate) was 1.7765 g, the “change in starting weight” value ([1]; 75% RH, day 10, monohydrate) was “+0.2725 g” and the sample weight ([1]; 75% RH, day 10, monohydrate) was 1.7738 g. The “change in starting weight” value ([1]; 75% RH, day 11, monohydrate) was “+0.2768 g”, the sample weight ([1]; 75% RH, day 11, monohydrate) was 1.7781 g and the “change in starting weight” value ([1]; 75% RH, day 12, monohydrate) was “+0.1796 g”. The sample weight ([1]; 75% RH, day 12, monohydrate) was 1.7809 g, the “change in starting weight” value ([1]; 75% RH, day 13, monohydrate) was “+0.2678 g” and the sample weight ([1]; 75% RH, day 13, monohydrate) was 1.7781 g. The “change in starting weight” value ([1]; 75% RH, day 14, monohydrate) was “+0.2755 g”, the sample weight ([1]; 75% RH, day 14, monohydrate) was 1.7768 g and the “change in starting weight” value ([1]; 75% RH, day 15, monohydrate) was “+0.2755 g”. For the same molecule, the sample weight ([1]; 75% RH, day 15, monohydrate) was 1.7768 g, the “change in starting weight” value ([1]; 75% RH, day 16, monohydrate) was “+0.2761 g” and the sample weight ([1]; 75% RH, day 16, monohydrate) was 1.7774 g. For the same molecule, the “change in starting weight” value ([1]; 75% RH, day 17, monohydrate) was “+0.2741 g”, the sample weight ([1]; 75% RH, day 17, monohydrate) was 1.7754 g and the “Percent change based on average” value ([1]; 75% RH, monohydrate) was “+18%”. The sample weight ([1]; 84% RH, day 0 (starting weight), monohydrate) was 1.5068 g, the “change in starting weight” value ([1]; 84% RH, day 1, monohydrate) was “+0.0595 g” and the sample weight ([1]; 84% RH, day 1, monohydrate) was 1.5663 g. The “change in starting weight” value ([1]; 84% RH, day 2, monohydrate) was “+0.1159 g”, the sample weight ([1]; 84% RH, day 2, monohydrate) was 1.6227 g and the “change in starting weight” value ([1]; 84% RH, day 3, monohydrate) was “+0.1762 g”. For the same molecule, the sample weight ([1]; 84% RH, day 3, monohydrate) was 1.6830 g, the “change in starting weight” value ([1]; 84% RH, day 4, monohydrate) was “+0.2309 g” and the sample weight ([1]; 84% RH, day 4, monohydrate) was 1.7377 g. For the same molecule, the “change in starting weight” value ([1]; 84% RH, day 5, monohydrate) was “+0.2801 g”, the sample weight ([1]; 84% RH, day 5, monohydrate) was 1.7869 g and the “change in starting weight” value ([1]; 84% RH, day 6, monohydrate) was “+0.2965 g”. For the same molecule, the sample weight ([1]; 84% RH, day 6, monohydrate) was 1.8033 g, the “change in starting weight” value ([1]; 84% RH, day 7, monohydrate) was “+0.2910 g” and the sample weight ([1]; 84% RH, day 7, monohydrate) was 1.7978 g. The “change in starting weight” value ([1]; 84% RH, day 8, monohydrate) was “+0.2932 g”, the sample weight ([1]; 84% RH, day 8, monohydrate) was 1.8000 g and the “change in starting weight” value ([1]; 84% RH, day 10, monohydrate) was “+0.2997 g”. For the same molecule, the sample weight ([1]; 84% RH, day 10, monohydrate) was 1.8065 g, the “change in starting weight” value ([1]; 84% RH, day 11, monohydrate) was “+0.3062 g” and the sample weight ([1]; 84% RH, day 11, monohydrate) was 1.8130 g. For the same molecule, the “change in starting weight” value ([1]; 84% RH, day 12, monohydrate) was “+0.3099 g”, the sample weight ([1]; 84% RH, day 12, monohydrate) was 1.8167 g and the “change in starting weight” value ([1]; 84% RH, day 13, monohydrate) was “+0.3090 g”. The sample weight ([1]; 84% RH, day 13, monohydrate) was 1.8158 g, the “change in starting weight” value ([1]; 84% RH, day 14, monohydrate) was “+0.3055 g” and the sample weight ([1]; 84% RH, day 14, monohydrate) was 1.8123 g. The “change in starting weight” value ([1]; 84% RH, day 15, monohydrate) was “+0.2996 g”, the sample weight ([1]; 84% RH, day 15, monohydrate) was 1.8064 g and the “change in starting weight” value ([1]; 84% RH, day 16, monohydrate) was “+0.2961 g”. The sample weight ([1]; 84% RH, day 16, monohydrate) was 1.8029 g, the “change in starting weight” value ([1]; 84% RH, day 17, monohydrate) was “+0.2916 g” and the sample weight ([1]; 84% RH, day 17, monohydrate) was 1.7984 g. The “Percent change based on average” value ([1]; 84% RH, monohydrate) was “+20%”, the “crystal form after completion of water uptake experiments (XRPD)” value ([1]; each humidity utilized) was “another hydrated crystal form was produced” and the “increase in weight at equilibrium (constant weight)” value ([1]; each humidity utilized) was “about 20%”. For the same molecule, the “form change on drying under low pressure” value [2] was “these conditions caused dehydration”, the “solid form interconversion under pressure used to make tablets” value [3] was “no solid form interconversion occurred” and the “stability and physical properties compared with sodium phenytoin anhydrate” value [4] was “greatly improved stability and physical properties”.
